Source: patent publication US20260315437A1, “COMBINATION OF NAB-SIROLIMUS AND AN ESTROGEN SUPPRESOR FOR USE IN THE TREATMENT OF HORMONE-DEPENDENT CANCERS” (AADI Bioscience, Inc., priority 2023, published 2026)

Tests used:
mTORC1 at Ser2448 = conditions: cited from earlier work
ABCB1/ABCG2 = conditions: cited from earlier work
[1] = in vivo; cited from earlier work
CYP3A4 = conditions: role: substrate; cited from earlier work
HSA = conditions: cited from earlier work
human plasma proteins = conditions: cited from earlier work
pAKT = assay: Western blot analysis of pAKT in MCF7 cells; format: cell-based; conditions: fulvestrant combined with nab-sirolimus, FIG. 3, effect on nab-sirolimus-induced increase
Experimental: (§1) A series of single-agent treatments of fulvestrant or nab-sirolimus and combination treatments of both fulvestrant and nab-sirolimus were separately applied to aliquots of hormone receptor positive breast cancer cell lines (either MCF7 or MDA-MB-361). The series including varying concentration of nab-sirolimus (20 nM or 80 nM) and fulvestrant (0.98 nM to 1000 nM). Following the application of the individual treatments, the cell aliquots were incubated for 5 days. Subsequently, the antiproliferative and cytotoxic effects of single agent and combination treatments were assessed using an automated trypan blue exclusion assay.
Western blot analysis was performed to assess pAKT in MCF7 cells. […] Thus, addition of fulvestrant, to mTOR targeting agents, such as nab-sirolimus may overcome mechanisms of resistance.

p4EBP1 = assay: Western blot analysis of p4EBP1 in MCF7 cells; format: cell-based; conditions: single agent, FIG. 3
Experimental: as §1
Western blot analysis was performed to assess p4EBP1 in MCF7 cells. […] Thus, addition of nab-sirolimus to endocrine-based therapies, such as fulvestrant, may overcome mechanisms of resistance.

## COc1ccc(-c2ccc3c(N4CCOCC4)nc(N4C[C@@H](C)O[C@@H](C)C4)nc3n2)cc1CO [KU-0063794]
mTORC1 at Ser2448
  inhibition of phosphorylation of mTORC1 at Ser2448: inhibits the phosphorylation of mTORC1 at Ser2448 in a dose-dependent and time-dependent manner

## COc1ccc(COc2cc3oc(=O)c4cc(C(C)O)ccc4c3cc2OC)cc1 (stereo not drawn) [Palomid 529]
ABCB1/ABCG2
  affinity for ABCB1/ABCG2: lacks affinity for ABCB1/ABCG2
[1]
  brain penetration: good brain penetration

## CO[C@H]1C[C@@H]2CC[C@@H](C)[C@@](O)(O2)C(=O)C(=O)N2CCCC[C@H]2C(=O)O[C@H]([C@H](C)C[C@@H]2CC[C@@H](O)[C@H](OC)C2)CC(=O)[C@H](C)/C=C(\C)[C@@H](O)[C@@H](OC)C(=O)[C@H](C)C[C@H](C)/C=C/C=C/C=C/1C [Sirolimus, sirolimus]
CYP3A4
  metabolism: metabolized primarily by CYP3A4
HSA
  binding to HSA: shown to bind HSA

## CC(=O)O[C@@]12CO[C@@H]1C[C@H](O)[C@@]1(C)C(=O)[C@H](O)C3=C(C)[C@@H](OC(=O)[C@H](O)[C@@H](NC(=O)OC(C)(C)C)c4ccccc4)C[C@@](O)([C@@H](OC(=O)c4ccccc4)[C@H]21)C3(C)C [docetaxel]
Human plasma proteins
  binding to human plasma proteins: shown to bind to human plasma proteins

## C[C@]12CC[C@@H]3c4ccc(O)cc4C[C@@H](CCCCCCCCC[S+]([O-])CCCC(F)(F)C(F)(F)F)[C@H]3[C@@H]1CC[C@@H]2O (stereo partly drawn) [fulvestrant]
pAKT
  pAKT level in combination: reversed by combination with fulvestrant in a dose-dependent manner
p4EBP1
  p4EBP1 level: increased p4EBP1 in response to fulvestrant in a dose-dependent manner

## CC(C)c1cccc(C(C)C)c1O [propofol]
HSA
  binding to HSA: shown to bind HSA
